Experiments:
BMDCs = assay: BMDC cross-priming of CD8+ T cells with irradiated tumor cells (ELISPOT); assay type: cell-based, mouse; conditions: IFN-β 10 ng/ml in co-culture; DMXAA 100 μg/ml, 3 h
Method: Single-cell suspensions of bone marrow cells were obtained from C57BL/6J, STING^−/− and IRF3^−/− mice. Bone marrow from cGAS^−/− mice was kindly provided by Dr. Zhijian J. Chen of University of Texas Southwestern Medical Center, Dallas. The cells were placed in 10 cm petri dish and cultured in RPMI-1640 medium containing 10% fetal bovine serum ([…]), supplemented with 20 ng/ml GM-CSF. Fresh media with GM-CSF was added into culture on day 3. BMDCs (bone marrow-derived dendritic cells) were harvest for stimulation assay on day 7. 8×10^6 MC38-SIY^hi cells were plated into 10 cm cell culture dishes overnight, and then pretreated with 40Gy and incubated for 5 hours. BMDCs were added and co-cultured with MC38-SIY″ cells at the ratio of 1:1 in the presence of fresh GM-CSF for additional 8 hours. Subsequently purified CD11c^+ cells with EasySep™ Mouse CD11c Positive Selection Kit II ([…]) were incubated with isolated CD8^+ T cells from naive 2C mice for three days. For the bypassing assay, 10 ng/ml murine IFN-β was added in the co-culture of BMDCs and tumor cells, or 100 μg/ml DMXAA was added into isolated CD11c^+ cells with additional 3 h incubation. For IFN-β detection, BMDCs were co-cultured with tumor cells at the ratio of 1:1 for additional 8 hours, and 1×10^6 cells/ml purified CD11c^+ cells were seed into 96-well plates for 48 hours. […]

[1] = tested on: RIG-I^−/− and WT MEFs; shRIG-I D54 and HCT116 tumor cells; assay: Caspase 3/7 activity in response to chemotherapy drugs with or without RIG-I; assay type: cell-based; conditions: increasing doses of drug
[2] = target: T1, RIG-I (DDX58), full-length (Homo sapiens) (UniProt O95786); assay: pulldown; conditions: CLIP-qPCR, enrichment in RIG-I complexes from irradiated (6 Gy) vs non-irradiated HEK293; also enriched in HCT116
T1 sequence: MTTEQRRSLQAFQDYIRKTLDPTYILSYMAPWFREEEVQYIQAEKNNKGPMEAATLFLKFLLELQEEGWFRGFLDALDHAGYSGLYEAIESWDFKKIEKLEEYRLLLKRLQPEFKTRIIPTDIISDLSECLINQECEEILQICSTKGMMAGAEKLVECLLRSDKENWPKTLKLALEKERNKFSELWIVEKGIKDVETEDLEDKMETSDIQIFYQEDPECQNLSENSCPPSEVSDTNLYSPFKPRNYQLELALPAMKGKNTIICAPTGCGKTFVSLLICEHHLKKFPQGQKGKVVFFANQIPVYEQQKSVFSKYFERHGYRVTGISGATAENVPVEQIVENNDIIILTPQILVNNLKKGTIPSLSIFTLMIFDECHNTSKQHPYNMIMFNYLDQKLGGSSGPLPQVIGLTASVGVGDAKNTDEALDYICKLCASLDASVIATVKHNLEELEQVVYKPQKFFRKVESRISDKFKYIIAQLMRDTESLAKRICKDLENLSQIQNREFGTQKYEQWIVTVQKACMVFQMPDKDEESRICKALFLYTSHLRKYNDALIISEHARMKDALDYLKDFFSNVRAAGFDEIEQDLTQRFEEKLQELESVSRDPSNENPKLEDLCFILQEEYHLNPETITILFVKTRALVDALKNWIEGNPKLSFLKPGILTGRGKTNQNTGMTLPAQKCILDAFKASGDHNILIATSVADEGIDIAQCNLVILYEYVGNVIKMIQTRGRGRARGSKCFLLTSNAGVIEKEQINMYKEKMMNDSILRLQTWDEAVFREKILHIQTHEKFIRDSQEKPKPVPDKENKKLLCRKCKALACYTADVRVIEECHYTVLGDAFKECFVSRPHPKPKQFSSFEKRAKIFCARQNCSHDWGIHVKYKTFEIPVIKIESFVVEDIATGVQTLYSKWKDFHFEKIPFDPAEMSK

MC38 tumors [3] = assay: MC38 tumor growth after local radiation (20Gy); assay type: in vivo, mouse
Method: 1×10^6 MC38 tumor cells were subcutaneously injected into the flank of mice.
(§1) Tumor volumes were measured along three orthogonal axes (a, b, and c) and calculated as tumor volume=abc/2. Tumors were allowed to grow for 9-10 days and treated by local radiation (Deng et al., 2014). Briefly, the body was protected with a lead cover and the tumor was exposed, allowing local radiation. Tumors were irradiated using RS-2000 Biological Irradiator (RAD SOURCE) at the dose of 20Gy with 160 kV and 25 mA. For type I IFN blockade experiments, 200 μg anti-IFAR1 mAb was intratumorally injected on day 0 and 2 after radiation. For HMGB-1 blockade experiments, 200 μg anti-HMGB-1 mAb (clone 3B1, generated by inventors) was administered i.p. on day 0 and 3 after radiation. For CD8^+ T cell depletion experiments, 300 μg anti-CD8 mAb (Clone 2.43, BioXCell) was delivered 5 times by i.p. injection every three days starting one day before radiation. For exogenous IFN-β treatment experiments, 1×10^10 viral particles of Ad-IFN-β (Burnette, B., et al., The Efficacy of Radiotherapy Relies upon Induction of Type I Interferon-Dependent Innate and Adaptive Immunity, Cancer Res Apr. 1, 2011 71; 2488; (doi: 10.1158/0008-5472.CAN-10-2820)) were intratumorally administered on day 2 after radiation. Ad-null was used as negative control. […]

MC38 tumors [4] = assay: ELISPOT of IFNγ-secreting tumor-specific CD8+ T cells from tumor DLNs; assay type: in vivo, mouse
Method: as §1

RIG-I = target: T2, RIG-I (Homo sapiens, UniProt O95786); assay: HEK293 IFN-beta promoter dual luciferase reporter, RNA stimulation; assay type: cell-based; conditions: 1 μg synthetic oligonucleotide, 24 hour stimulation
T2 construct: HEK293 cells overexpressing either the full length RIG-I; host or cells: HEK293; HCT116 also for the qRT-PCR validation
T2 sequence (O95786 1-925): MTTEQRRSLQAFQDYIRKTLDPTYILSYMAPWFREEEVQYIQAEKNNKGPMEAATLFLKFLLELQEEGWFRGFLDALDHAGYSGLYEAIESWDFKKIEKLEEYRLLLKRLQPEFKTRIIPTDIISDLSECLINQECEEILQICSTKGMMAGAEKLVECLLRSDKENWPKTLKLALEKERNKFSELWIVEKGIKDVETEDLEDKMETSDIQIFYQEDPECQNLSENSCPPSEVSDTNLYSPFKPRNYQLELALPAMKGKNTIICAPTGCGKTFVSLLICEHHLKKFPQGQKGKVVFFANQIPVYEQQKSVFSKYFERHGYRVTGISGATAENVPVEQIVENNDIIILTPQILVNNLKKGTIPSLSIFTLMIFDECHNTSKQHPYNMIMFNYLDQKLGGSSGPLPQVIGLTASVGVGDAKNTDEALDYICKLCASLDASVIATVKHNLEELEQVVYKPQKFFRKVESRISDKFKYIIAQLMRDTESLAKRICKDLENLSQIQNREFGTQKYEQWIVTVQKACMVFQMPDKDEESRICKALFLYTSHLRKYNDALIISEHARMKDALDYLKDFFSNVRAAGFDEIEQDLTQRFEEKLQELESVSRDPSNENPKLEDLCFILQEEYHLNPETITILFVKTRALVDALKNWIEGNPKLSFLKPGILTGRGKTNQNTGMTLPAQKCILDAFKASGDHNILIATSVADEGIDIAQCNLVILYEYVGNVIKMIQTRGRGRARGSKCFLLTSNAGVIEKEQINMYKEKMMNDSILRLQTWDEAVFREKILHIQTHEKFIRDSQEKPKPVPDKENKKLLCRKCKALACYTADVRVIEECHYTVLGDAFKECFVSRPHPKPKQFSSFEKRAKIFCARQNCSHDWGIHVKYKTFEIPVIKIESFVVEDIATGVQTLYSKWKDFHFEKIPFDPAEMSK
Method: We also used reporter HEK293 cells as simple technique to evaluate ability of the given RNA to stimulate IFN-beta production in preliminary in vitro experiments. Technically this was performed as follows: RNA stimulation of HEK293 IFN-beta reporter cells HEK293 cells were seeded in a 24-well plate overnight at a density of 1.5×10^5 cells/ml (75,000 cells/well). Cells were co-transfected with 100 ng of plasmid construct (pCAGGS empty vector, pCAGGS-RIG-I full-length, pCAGGS-RIG-I helicase-RD mutant construct, and […] mutant construct), together with 80 ng of a firefly luciferase reporter gene driven by an IFN-beta promoter and 20 ng of a Renilla luciferase (pRL-null) transfection control. Transfections were performed using a cationic lipid agent, Fugene HD (Promega), at a 3:1 lipid:DNA ratio. Twenty-four hours post-transfection, cells were then stimulated with 1 μg RNA* mixed with Fugene HD at 2:1 lipid: RNA ratio for 24 hours. 20 μl cell lysates were collected in opaque 96-well plates and analyzed for IFN-beta-luciferase and Renilla activity using a BioTek Synergy HT plate reader. The transfection efficiency across different wells was normalized by dividing the IFN-beta luciferase activity with the Renilla activity. All values were further normalized to the unstimulated controls in cells transfected with the empty vector. All pCAGGS RIG-I constructs used in this study were generous gifts from Dr. Jenish Patel and Dr. Adolfo Garcia-Sastre of The Icahn School of Medicine at Mount Sinai in New York City. Synthetic RNA comprised of various stem loop regions of the human U1 snRNA were purchased from IDT Oligos as reported in (Bernard et al., 2012). U1 stem loop I sequence: [NT] ID NO:15); U1 stem loop II sequence: [NT] ID NO:16); U1 stem loop III sequence: [NT] ID NO:17); U1 stem loop IV sequence: [NT] ID NO:18); U1 stem loops I and II sequence: [NT] ID NO:19); U1 stem loops II and III sequence: [NT] ID NO:20). In vitro transcribed U1 RNA stimulation: Full length U1 (pT7U1) plasmid was generously provided by Dr. Joan Steitz (Yale School of Medicine, Yale University). […]

Cc1ccc2c(=O)c3cccc(CC(=O)O)c3oc2c1C [DMXAA]
function of STING^−/− BMDCs (cross-priming) (BMDCs): fails to rescue
function of cGAS^−/− BMDCs (cross-priming) (BMDCs): restored

N.N.[Cl][Pt][Cl] [cisplatin]
caspase 3/7 activity in response to drug treatment, RIG-I absent or depleted vs control cells [1]: reduced caspase 3/7 activity

COc1cccc2c1C(=O)c1c(O)c3c(c(O)c1C2=O)C[C@@](O)(C(=O)CO)C[C@@H]3O[C@H]1C[C@H](N)[C@H](O)[C@H](C)O1 [doxorubicin]
caspase 3/7 activity in response to drug treatment, RIG-I absent or depleted vs control cells [1]: reduced caspase 3/7 activity

U1 snRNA (endogenous)
binding signal [2]: 6 fold

Nc1nc2c(ncn2[C@@H]2O[C@@H]3COP(=O)(O)O[C@H]4[C@@H](O)[C@H](n5cnc6c(N)ncnc65)O[C@@H]4COP(=O)(O)O[C@@H]2[C@@H]3O)c(=O)[nH]1 [2′3′-cGAMP, cyclic [G(2′,5′)pA(3′,5′)p]]
synergy with radiation (MC38 tumors [3]; STING^−/− mice): abrogated
tumor burden, combination with radiation compared to either alone (MC38 tumors [3]; WT mice, 10 μg intratumorally on day 2 and 6 after 20Gy): effectively reduce tumor burden
number of tumor-specific IFN-γ-producing CD8+ T cells in DLNs (MC38 tumors [4]; combination with radiation vs radiation or 2′3′-cGAMP alone, WT mice): significantly increased
antitumor CD8+ T cell response induced by combination with radiation (MC38 tumors [4]; deficiency of STING in the host): dampened

B1: SL I+II: synthetic RNA of U1 stem loops I and II, SEQ ID NO:19 (nucleic acid)
chain: GGGAGATACCATGATCACGAAGGTGGTTTTCCCAGGGCGAGGCTTATCCATTGCACTCCGGATGTGCTGACCCC
modifications: listed as DNA, chemistry not given here
IFN-beta response (reporter activity in HEK293; IFN-b in MEF supernatant) (RIG-I): potent inducers of IFN-beta response

B2: SL II+III: synthetic RNA of U1 stem loops II and III, SEQ ID NO:20 (nucleic acid)
chain: GGGCGAGGCTTATCCATTGCACTCCGGATGTGCTGACCCCTGCGATTTCCCCAAATGTGGGAAACTCGACTGC
modifications: listed as DNA, chemistry not given here
IFN-beta response (reporter activity in HEK293; IFN-b in MEF supernatant) (RIG-I): potent inducers of IFN-beta response
